In ChEMBL document CHEMBL4184137, “Lysine Deacetylase Inhibitors in Parasites: Past, Present, and Future Perspectives” (J Med Chem, 2017):
One block for each compound: values may come before it. *1 amine or outer side, *2 acyl side, *3 side chain or, on linkers, in order; H or OH if unused. Where a SMILES comes first, the peptide text is derived from it. Bridges are numbered along the chain shown (N, C = ends). [ ]: non-standard residue; d: D form. X1 = CC(C)CCCCCCCCC[C@H](CC(=O)[*:1])O[*:2]

Experiments:
Plasmodium falciparum [1] = test: Antimalarial activity against Plasmodium falciparum infected in human erythrocytes after 24 hrs by microbeta scintillation counting-based [3H]-hypoxanthine incorporation assay; format: functional, organism-based
[2] = Selectivity index, ratio of IC50 for human NHDF cells to IC50 for Plasmodium falciparum; format: toxicity; conditions: read-out: Ratio IC50
[3] = Selectivity index, ratio of IC50 for HUVEC to IC50 for Plasmodium falciparum; format: toxicity; conditions: human, read-out: Ratio IC50
[4] = Selectivity index, ratio of IC50 for human PTC cells to IC50 for Plasmodium falciparum; format: toxicity; conditions: read-out: Ratio IC50
[5] = Selectivity index, ratio of IC50 for human NFF cells to IC50 for Plasmodium falciparum; format: toxicity; conditions: read-out: Ratio IC50
Histone deacetylase 8 [6] = molecular target: T1, Histone deacetylase 8 (Schistosoma mansoni, UniProt A5H660); test: Inhibition of Schistosoma mansoni HDAC8 using Fluor de Lys(R) as substrate by fluorimetric assay
T1 sequence (A5H660 whole entry): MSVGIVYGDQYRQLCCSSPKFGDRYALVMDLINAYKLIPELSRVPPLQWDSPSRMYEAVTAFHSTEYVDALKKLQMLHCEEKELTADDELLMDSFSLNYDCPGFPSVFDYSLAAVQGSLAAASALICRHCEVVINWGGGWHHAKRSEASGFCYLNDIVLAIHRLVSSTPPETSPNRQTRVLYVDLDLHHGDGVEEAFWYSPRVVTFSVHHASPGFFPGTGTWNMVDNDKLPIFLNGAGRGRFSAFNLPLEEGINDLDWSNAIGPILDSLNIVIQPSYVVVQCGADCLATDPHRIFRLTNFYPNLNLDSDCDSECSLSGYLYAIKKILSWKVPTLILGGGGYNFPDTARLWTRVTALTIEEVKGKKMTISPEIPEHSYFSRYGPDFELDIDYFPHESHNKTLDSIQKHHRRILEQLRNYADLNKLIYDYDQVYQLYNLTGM

Histone deacetylase 8 [7] = molecular target: T2, Histone deacetylase 8 (Homo sapiens, UniProt Q9BY41); test: Inhibition of human HDAC8 using Fluor de Lys(R) as substrate by fluorimetric assay
T2 sequence (Q9BY41 whole entry): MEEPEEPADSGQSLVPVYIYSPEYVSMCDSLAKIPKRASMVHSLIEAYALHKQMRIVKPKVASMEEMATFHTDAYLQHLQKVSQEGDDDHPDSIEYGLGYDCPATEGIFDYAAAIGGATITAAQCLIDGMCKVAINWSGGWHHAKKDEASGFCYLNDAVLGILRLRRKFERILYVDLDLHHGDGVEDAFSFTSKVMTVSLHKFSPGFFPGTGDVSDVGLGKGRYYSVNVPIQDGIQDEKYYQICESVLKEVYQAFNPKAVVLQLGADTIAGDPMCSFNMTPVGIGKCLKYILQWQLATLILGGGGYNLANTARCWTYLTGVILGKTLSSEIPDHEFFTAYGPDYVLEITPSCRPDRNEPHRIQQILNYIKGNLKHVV

Histone deacetylase 1 = Histone deacetylase 1 (Homo sapiens, UniProt Q13547); test: Inhibition of human HDAC1 using Z(Ac)Lys-AMC as substrate by fluorimetric assay
[8] = molecular target: T3, Protein deacetylase HDAC6 (Homo sapiens, UniProt Q9UBN7); test: Inhibition of human HDAC6 using Z(Ac)Lys-AMC as substrate by fluorimetric assay
T3 sequence (Q9UBN7 whole entry): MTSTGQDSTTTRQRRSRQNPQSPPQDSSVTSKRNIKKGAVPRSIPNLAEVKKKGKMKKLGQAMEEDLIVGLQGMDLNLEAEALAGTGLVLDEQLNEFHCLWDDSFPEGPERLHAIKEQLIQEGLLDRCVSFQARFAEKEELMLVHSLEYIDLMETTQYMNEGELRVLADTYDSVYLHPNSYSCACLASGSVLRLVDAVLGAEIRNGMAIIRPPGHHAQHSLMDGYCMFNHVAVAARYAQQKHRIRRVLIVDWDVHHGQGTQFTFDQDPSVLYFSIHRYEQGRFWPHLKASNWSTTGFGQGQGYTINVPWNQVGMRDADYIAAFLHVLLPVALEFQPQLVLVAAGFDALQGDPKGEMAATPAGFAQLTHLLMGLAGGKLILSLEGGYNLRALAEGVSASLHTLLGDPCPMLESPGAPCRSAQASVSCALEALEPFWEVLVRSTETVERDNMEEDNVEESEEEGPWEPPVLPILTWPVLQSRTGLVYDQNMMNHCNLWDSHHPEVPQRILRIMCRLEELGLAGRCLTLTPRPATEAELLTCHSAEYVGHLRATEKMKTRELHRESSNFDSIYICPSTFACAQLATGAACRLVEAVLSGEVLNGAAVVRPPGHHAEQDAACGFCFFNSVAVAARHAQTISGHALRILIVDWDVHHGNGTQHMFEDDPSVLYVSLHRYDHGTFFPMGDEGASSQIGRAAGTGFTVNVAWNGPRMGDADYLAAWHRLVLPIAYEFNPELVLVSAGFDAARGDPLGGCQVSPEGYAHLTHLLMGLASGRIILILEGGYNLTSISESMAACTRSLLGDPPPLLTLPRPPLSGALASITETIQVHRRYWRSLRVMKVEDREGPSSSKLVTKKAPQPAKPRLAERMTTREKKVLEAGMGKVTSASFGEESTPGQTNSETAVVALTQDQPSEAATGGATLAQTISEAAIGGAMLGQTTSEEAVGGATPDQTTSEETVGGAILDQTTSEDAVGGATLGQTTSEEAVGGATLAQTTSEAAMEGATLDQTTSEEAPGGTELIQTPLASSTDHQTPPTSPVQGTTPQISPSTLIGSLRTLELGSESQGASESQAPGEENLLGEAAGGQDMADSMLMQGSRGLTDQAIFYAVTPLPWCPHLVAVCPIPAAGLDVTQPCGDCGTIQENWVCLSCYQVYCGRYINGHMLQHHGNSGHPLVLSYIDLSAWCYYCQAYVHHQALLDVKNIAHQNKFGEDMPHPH

Schistosoma mansoni = test: Antiparasitic activity against Schistosoma mansoni assessed as reduction in cell viability at 50 uM after 3 days relative to control; format: functional
[9] = molecular target: T4, NAD-dependent protein deacetylase sirtuin-1 (Homo sapiens, UniProt Q96EB6); test: Inhibition of human SIRT1 in presence of NAD+ by fluorimetric method
T4 sequence (Q96EB6 whole entry): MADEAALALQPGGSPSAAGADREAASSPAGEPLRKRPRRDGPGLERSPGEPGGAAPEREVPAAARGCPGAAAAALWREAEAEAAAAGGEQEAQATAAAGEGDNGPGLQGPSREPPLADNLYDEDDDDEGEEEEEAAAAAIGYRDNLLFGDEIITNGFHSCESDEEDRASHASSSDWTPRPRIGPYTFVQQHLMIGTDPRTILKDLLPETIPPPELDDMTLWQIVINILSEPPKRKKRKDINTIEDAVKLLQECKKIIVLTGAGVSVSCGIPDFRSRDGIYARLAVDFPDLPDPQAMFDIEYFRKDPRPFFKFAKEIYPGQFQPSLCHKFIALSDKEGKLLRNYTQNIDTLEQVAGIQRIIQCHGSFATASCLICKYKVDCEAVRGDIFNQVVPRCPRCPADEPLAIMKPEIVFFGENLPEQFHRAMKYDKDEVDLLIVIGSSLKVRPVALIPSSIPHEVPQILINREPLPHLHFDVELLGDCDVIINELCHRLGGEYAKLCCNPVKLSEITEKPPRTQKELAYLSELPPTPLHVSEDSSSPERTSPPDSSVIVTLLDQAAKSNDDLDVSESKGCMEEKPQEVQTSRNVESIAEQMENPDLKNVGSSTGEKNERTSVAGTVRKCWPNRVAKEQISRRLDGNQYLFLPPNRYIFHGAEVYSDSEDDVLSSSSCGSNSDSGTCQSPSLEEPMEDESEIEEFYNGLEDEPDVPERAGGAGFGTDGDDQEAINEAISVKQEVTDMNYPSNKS

[10] = Selectivity index, ratio of IC50 for N-terminal His6-tagged recombinant Leishmania infantum SIR2RP1 expressed in Escherichia coli to IC50 for human SIRT1
Leishmania infantum = test: Antileishmanial activity against amastigote stage of Leishmania infantum MHOM/MA671TMAP263 expressing luciferase after 72 hrs by luciferase assay; format: functional, organism-based; conditions: MHOM/MA671TMAP263, 72 h
[11] = Inhibition of Plasmodium falciparum Sir2A
[12] = molecular target: T4, NAD-dependent protein deacetylase sirtuin-1; test: Inhibition of human SIRT1
Plasmodium falciparum [13] = test: Antiplasmodial activity against Plasmodium falciparum 3D7 assessed as growth inhibition after 24 hrs by measuring incorporation of [3H]-hypoxanthine by liquid scintillation counting method; format: functional, organism-based

Sequence of Histone deacetylase 1 (Q13547 whole entry): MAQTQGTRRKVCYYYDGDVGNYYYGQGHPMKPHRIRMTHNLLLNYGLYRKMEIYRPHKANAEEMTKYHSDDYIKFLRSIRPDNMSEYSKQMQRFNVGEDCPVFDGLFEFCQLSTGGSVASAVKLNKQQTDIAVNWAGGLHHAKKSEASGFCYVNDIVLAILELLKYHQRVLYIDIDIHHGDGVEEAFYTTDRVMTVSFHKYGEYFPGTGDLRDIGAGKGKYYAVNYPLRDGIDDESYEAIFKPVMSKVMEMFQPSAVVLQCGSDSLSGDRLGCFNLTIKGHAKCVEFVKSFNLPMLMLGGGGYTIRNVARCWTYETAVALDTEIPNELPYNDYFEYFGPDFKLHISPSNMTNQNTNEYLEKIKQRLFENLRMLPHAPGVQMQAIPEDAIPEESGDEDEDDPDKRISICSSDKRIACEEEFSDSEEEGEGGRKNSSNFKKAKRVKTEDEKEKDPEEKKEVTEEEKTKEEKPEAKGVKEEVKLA

IC50 (Plasmodium falciparum [1]): 0.08 to 0.15 µM
Compound: CCCCc1nc2cc(/C=C/C(=O)NO)ccc2n1CCN(CC)CC [PRACINOSTAT]
selectivity ratio [2]: 4 to 1250 | selectivity ratio [3]: 4 to 1250 | selectivity ratio [4]: 4 to 1250 | selectivity ratio [5]: 4 to 1250

IC50 (Histone deacetylase 8 [6]): 4.3 µM | IC50 (Histone deacetylase 8 [7]): 3.1 µM | IC50 (Histone deacetylase 1): 19.4 µM | IC50 [8]: 37.4 µM
Compound: O=C(NO)c1sc2ccccc2c1Cl
Activity (Schistosoma mansoni): 100%

IC50 [9]: 97.4 µM | Ratio IC50 [10]: 17 | IC50 (Leishmania infantum): 6.03 µM
Compound: O=C1c2cccc3cccc(c23)C(=O)N1CCCNCCCCCCCCCNCCCN1C(=O)c2cccc3cccc(c23)C1=O

IC50 [11]: 35 µM | IC50 [12]: > 600 µM
Compound: CC(C)CCCCCCCCC[C@@H]1CC(=O)N[C@@H](CCC(=O)O)C(=O)N[C@@H](CC(C)C)C(=O)N[C@H](CC(C)C)C(=O)N[C@@H](C(C)C)C(=O)N[C@@H](CC(=O)O)C(=O)N[C@H](CC(C)C)C(=O)N[C@@H](CC(C)C)C(=O)O1 [SURFACTIN] (EL[dL]VD[dL]L; linker N-C via X1)
IC50 (Plasmodium falciparum [13]): 9 µM
